Data from patent US20200306295A1, “METHOD AND DEVICE FOR ANNIHILATION OF Staphylococcus aureus” (priority 2017, published 2020).
≈ marks a conversion by molar mass, not a printed value. Entries after “also recorded” stand apart in the source; their conditions may differ. Like-named read-outs stand apart in the source and are kept apart here.

Assays:
[1] = tested on: MRSA NRS384 (MRSA USA 300); assay: MIC by standard broth-dilution method; assay type: cell-based, S. aureus
From the text: For each measurement, three independent replicates were applied.

stationary-phase MRSA [2] = assay type: cell-based, S. aureus; settings: for fold reduction of lowest concentration completely inhibiting MRSA growth within 18 hours, with laser treatment: 16 min laser stated for tetracycline, 2-fold or larger is synergy (FICI)
Protocol: To monitor the response of bacteria to laser treatment alone, antibiotic treatment alone, or their combinations, bacterial growth was continuously monitored overnight (18 hours with an interval of 30 min at 37° C.) by measuring optical density at 600 nm (OD600). Depending on the specific assay applied, the bacterial cells were suspended in 100 or 200 μl TSB medium under different treatment schemes (antibiotic alone, laser treatment alone, antibiotic plus laser treatment) with a final concentration of ˜10^5 CFU/ml. Bacterial growth was defined as OD600≥0.1.
Stationary-phase bacterial cells was washed and resuspended in 1×PBS at its original concentration. […] The treated droplet was collected and resuspended into 5 ml TSB (1:1000 dilution) for each group. Corresponding groups without laser treatment were also conducted for comparison. The bacterial suspensions were transferred to a 96-well plate with antibiotics supplemented into with the first row of the 96-well plate for eight two-fold serial dilution starting at a desired antibiotic concentration (e.g. ofloxacin: 2 μg/ml). After serial dilution, bacterial growth within the same well plate was monitored by a plate reader for 18 hours (OD600, 37° C.). The checkerboard assay was used for groups with laser treatment alone or laser plus antibiotic treatment. Two independent experiments of checkerboard assay were performed for each antibiotic with or without laser treatment. Based on the readout of OD600, a heat map was created to evaluate the antibiotic potentiation or synergistic effect enabled by STX photolysis.
Based on the checkerboard results, the fractional inhibitory concentration index (FICI), a synergy evaluation method between two antibiotics, was calculated as below: FICI=MIC of antibiotic A in combination/MIC of antibiotic A alone+MIC of antibiotic B in combination/MIC of antibiotic B alone. The interaction of the two antibiotics was defined as below: synergy if FICI≤0.5, no interaction if 0.5<FICI≤4, antagonism if FICI>4^46. […] Considering this reason, the synergy calculation was simplified as below: FICI=MIC of antibiotic A in combination with laser treatment/MIC of antibiotic A alone with synergy defined by FICI≤0.5.

MRSA = assay: microbe, parasite or virus in culture; assay type: cell-based, S. aureus; settings: for MIC: Staphylococcus aureus, MRSA; for resistance development with laser treatment: 48-day serial passage, sub-MIC antibiotic with 10 min laser
Protocol: To understand whether laser treatment could cause genotypic or phenotypic change in MRSA, and whether STX photolysis could reduce the resistance development for conventional antibiotics, a serial passage study for each treatment scenario was conducted. The initial generation (Day 1) used in this study was stationary-phase MRSA. The sample was prepared, washed and resuspended in 1×PBS at its original concentration. An aliquot (5 μl) of the MRSA suspension was transferred onto a glass cover slide as a droplet of ˜5 mm in diameter with or without 10 min laser treatment (1 cm diameter illumination area, 120 mW). The droplets were then collected and resuspended into 5 ml of TSB medium (1:1000 dilution) with an estimated cell concentration of 10^5 CFU/ml. To study resistance development or selection induced by laser treatment alone, three groups were included: a group without laser treatment (SPO), a group with laser treatment (SPL1), and another independent group with laser treatment as a duplicate (SPL2). To study resistance development induced by antibiotic treatment alone and laser plus antibiotic treatment, three groups were included for each antibiotic: antibiotic alone-treated group (SPA0), laser plus antibiotic-treated group (SPLA1), and another laser plus antibiotic-treated group as another independent serial passage (SPLA2). For SPO, SPL1, and SPL2, 200 μl of bacterial suspension was directly transferred to each well of a 96-well plate, with three replicates conducted for each group. For SPA0, SPLA1, and SPLA2, 200 μl of bacterial suspension was transferred into the first dilution row of a 96-well plate with supplemented antibiotics at a desired starting concentration, whereas 100 μl of bacterial suspension was transferred to the rest dilution rows. […] Three replicates were applied for each group. These well plates were incubated in a shaker at 37° C. and 200 rpm for 18 hours followed by OD600 measurement by a plate reader. After MICs recording for each group, the well plates were continuously incubated in the shaker for 3 days in total. On Day 4, 200 μl of bacterial sample from each group was collected, washed, and resuspended in 1×PBS at its original concentration used as new inoculum for the next passage following the same protocol as described above. Samples for SPA0, SPLA1, and SPLA2 groups were collected from wells supplemented with sub-MIC antibiotic. Samples for SPO, SPL1, and SPL2 groups were also collected from the well plates. […] Serial passage for all groups were performed for […] with 16 generations in total. Raman spectroscopy was then applied to monitor STX expression level in groups of interest after the entire serial passage experiment. The protocol is detailed as below: 100 μl of ˜400 μl stored bacterial culture was collected, spun down with the supernatant being removed, then resuspended into 5 μl 1×PBS as high-concentration bacterial solution (20 times concentrated). An aliquot (1 μl) was transferred and then sandwiched between two glass cover slides for STX quantification by resonance Raman spectroscopy.

stationary-phase MRSA [3] = assay: Time-killing assay in PBS with or without pulsed laser (CFU enumeration); assay type: cell-based, S. aureus; settings: for synergy of laser treatment with antibiotic against MRSA: 5 min laser plus 10 MIC antibiotic (FIG. 32)
Protocol: To quantify viable bacterial cells, CFU experiments were performed. 100 μl of sample analyte was transferred into a 96-well plate and then three or four ten-fold serial dilution achieved by transferring 20 μl bacterial culture into 180 μl 1×PBS in the next dilution row. After serial dilution, an aliquot (4 μl) from each well was spotted onto sterile TSA plates. After incubating the plates overnight (˜18 hours) at 37° C., the colonies were enumerated, and cell number was calculated in CFU/ml. For each CFU enumeration experiment, three independent replicates were applied.
Stationary-phase MRSA was prepared, washed and resuspended in 1×PBS at two-times of its original concentration. […] After laser treatment, the droplets were resuspended into 200 μl of 1×PBS (1:40 dilution) supplemented with antibiotics at different concentrations in a mini centrifuge tube (89166-278, VWR international). For example, daptomycin was added into MRSA solution after laser treatment at desired concentration of 0×MIC, 5×MIC, 10×MIC, 30×MIC, or 100×MIC supplemented with 50 μg/ml CaCl2). Corresponding groups without laser treatment were also conducted for comparison. These tubes were incubated within an orbital incubator (37° C., 200 rpm) for different incubation time. At each specific time point, 40 μl of aliquot from each group was transferred to a 96-well plate for follow-up CFU enumerating assay. In the case of tobramycin, additional antibiotic washing by 1×PBS was performed before the CFU experiment to avoid antibiotic interference. For time-killing assay in fresh human whole blood, similar protocol was followed as above, except that 1×PBS was replaced by fresh human whole blood and the initial stationary-phase MRSA solution was diluted by ten times with a concentration of ˜10^7 CFU/ml.

stationary-phase MRSA [4] = assay: Gentamicin-Texas red intracellular uptake assay; assay type: cell-based, S. aureus; settings: gentamicin conjugated with Texas red, confocal fluorescence
Protocol: To study laser-mediated intracellular uptake of gentamicin (a representative of aminoglycoside), gentamicin was conjugated with a fluorescent dye, Texas-red, to form gentamicin-Texas red. Briefly, 10 mg of gentamicin was dissolved into 1 ml of 0.1 M sodium bicarbonate buffer (58761-500ML, Sigma Aldrich). 10 mg/ml of Texas red-X succinimidyl ester (T6134, Thermo Fisher Scientific) was added to the gentamicin solution slowly drop by drop. Then the mixed solution was stirred at room temperature for 1 hour. Gentamicin-Texas red was purified through sufficient dialysis against 0.1 M sodium bicarbonate buffer in a dialysis sack (Slide-A-Lyzer G2 Dialysis Cassettes, 2K MWCo, 15 mL, 87719, Thermao Fisher Scientific), and harvested through lyophilization (Labconco). […] After treatment, bacterial droplet was collected into 985 μl of sterile 1×PBS, and then add 10 μl of 1 mg/ml Gentamicin-Texas red. Mixed solution was incubated at 37° C. for 30 min with a shaking speed of 200 rpm. After incubation, MRSA pellets were harvested through washing with sterile 1×PBS twice and then fixed with 10% formalin. […] Quantitative analysis of fluorescence emission intensity from individual MRSA cells was conducted and allocated among groups with different laser treatment time.

[5] = read-out: MIC after 48-day serial passage, sub-MIC antibiotic alone

CC1COc2c(N3CCN(C)CC3)c(F)cc3c(=O)c(C(=O)O)cn1c23 (stereo not drawn) [Ofloxacin, ofloxacin]
MIC ([1]; Staphylococcus aureus): 0.5 µg/mL (≈ 1.38 µM)
fold reduction of lowest concentration completely inhibiting MRSA growth within 18 hours, with laser treatment (stationary-phase MRSA [2]): 2 fold
MIC (MRSA; [5]): 128 µg/mL (≈ 354 µM)

ramoplanin
resistance development with laser treatment (MRSA): decreased resistance development is not shown

NC[C@H]1O[C@H](O[C@H]2[C@H](O)[C@@H](O[C@H]3O[C@H](CO)[C@@H](O)[C@H](N)[C@H]3O)[C@H](N)C[C@@H]2N)[C@H](N)C[C@@H]1O [tobramycin]
resistance development with laser treatment (MRSA): resistance inhibition

gentamicin
MIC ([1]; MRSA NRS384 (MRSA USA 300), N = 3): 8 µg/mL
synergy of laser treatment with antibiotic against MRSA (stationary-phase MRSA [3]): synergy; also recorded: very obvious synergy
MRSA reduction (stationary-phase MRSA [3]; pulsed laser treatment combined with antibiotic at 10 MIC (FIG. 32)): more than 2 log
resistance development with laser treatment (MRSA): Delayed resistance development
intracellular uptake with laser treatment vs untreated (stationary-phase MRSA [4]): significantly more

O=C(O)c1cn(C2CC2)c2cc(N3CCNCC3)c(F)cc2c1=O [ciprofloxacin]
synergy of laser treatment with antibiotic against MRSA (stationary-phase MRSA [3]): synergy; also recorded: very obvious synergy
resistance development with laser treatment (MRSA): no resistance
MIC (MRSA; [5]): 128 µg/mL (≈ 386 µM)
MIC (MRSA; read-out: MIC over/after 48-day serial passage, sub-MIC antibiotic plus 10 min laser treatment): ≤ 2 µg/mL

CO/N=C(\C(=O)N[C@@H]1C(=O)N2C(C(=O)O)=C(COC(C)=O)CS[C@H]12)c1csc(N)n1 [cefotaxime]
synergy of laser treatment with antibiotic against MRSA (stationary-phase MRSA [3]): very obvious synergy
synergy of laser treatment with antibiotic against MRSA (stationary-phase MRSA [3]; listed as cetotaxine): synergy

CN(C/C=C/c1ccccc1)Cc1cccc2ccccc12 [naftifine]
second order bleaching constant τ2 (STX in MRSA; naftifine-treated MRSA, τ1=∞, wild-type MRSA 0.16±0.01 s): 0.39 ± 0.07 s
τ2 of naftifine-treated MRSA relative to wild-type MRSA (STX in MRSA; times longer than wild-type MRSA): 2.5 times

CC(=O)NC[C@H]1CN(c2ccc(N3CCOCC3)c(F)c2)C(=O)O1 [linezolid]
fold reduction of lowest concentration completely inhibiting MRSA growth within 18 hours, with laser treatment (stationary-phase MRSA [2]): 8 fold
resistance development with laser treatment (MRSA): resistance inhibition

Cc1onc(-c2ccccc2)c1C(=O)N[C@@H]1C(=O)N2[C@@H]1SC(C)(C)[C@@H]2C(=O)O [Oxacillin, oxacillin]
MIC ([1]; Staphylococcus aureus, MRSA NRS384 (MRSA USA 300), N = 3, read-out: MIC): 8 µg/mL (≈ 19.9 µM)
synergy of laser treatment with antibiotic against MRSA (stationary-phase MRSA [3]): synergy; also recorded: very obvious synergy
antibiotic concentration re-sensitized by laser treatment (stationary-phase MRSA [2]; laser treatment plus oxacillin): 1 µg/mL

CC[C@H]1OC(=O)[C@H](C)[C@@H](O[C@H]2C[C@@](C)(OC)[C@@H](O)[C@H](C)O2)[C@H](C)[C@@H](O[C@@H]2O[C@H](C)C[C@H](N(C)C)[C@H]2O)[C@](C)(O)C[C@@H](C)C(=O)[C@H](C)[C@@H](O)[C@]1(C)O [Erythromycin]
MIC ([1]; Staphylococcus aureus): 64 µg/mL (≈ 87.2 µM)
